US20240417684A1, “DIFFERENTIATION AND USE OF HUMAN MICROGLIA-LIKE CELLS FROM PLURIPOTENT STEM CELLS AND HEMATOPOIETIC PROGENITORS” (THE REGENTS OF THE UNIVERSITY OF CALIFORNIA, priority 2017, published 2024)
“Also recorded” adds a separate entry of the source.

Tests used:
[1] = target: T1, P2ry12 (Homo sapiens, UniProt Q9H244); test: ADP trans-well migration assay; assay type: cell-based; conditions: pre-exposure 50 μM, 1 hr; ADP 100 μM
T1 construct: iMGLs express the microglial-enriched purinergic receptor P2ry12; endogenous in cells; host or cells: iMGLs (human iPSC-derived microglia-like cells)
T1 sequence (Q9H244 whole entry): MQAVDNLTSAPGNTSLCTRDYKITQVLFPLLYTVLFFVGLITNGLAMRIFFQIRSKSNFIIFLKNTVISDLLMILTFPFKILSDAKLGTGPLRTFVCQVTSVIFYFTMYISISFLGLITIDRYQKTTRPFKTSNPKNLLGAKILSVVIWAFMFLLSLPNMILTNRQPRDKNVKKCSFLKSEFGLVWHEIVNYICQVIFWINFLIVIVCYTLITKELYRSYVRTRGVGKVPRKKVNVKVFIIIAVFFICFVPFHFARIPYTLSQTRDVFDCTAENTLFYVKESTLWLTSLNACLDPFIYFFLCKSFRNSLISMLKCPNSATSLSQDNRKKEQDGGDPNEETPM
Description: Trans-well migration assays to ADP was performed as previously described (De Simone et al., 2010; Moore et al., 2015). iMGLs (5.5×10^4 cells/well) were cultured in serum-free basal media without cytokines for 1hour. Next, iMGLS were pre-exposed to DMSO or PSB0739 (50 μM, Tocris) for 1 hr at 37° C. in 5% CO2 cell culture incubator. Cells were then washed three times with basal medium and plated in trans-well migration chambers (5 μm polycarbonate inserts in 24 wells; Corning) containing […] (ADP, 100 μM; Sigma) in the bottom chamber in 37° C. in 5% CO2. After 4 hours, cells were washed three times and fixed in PFA (4%) for 15 minutes at room temperature. Cells were stained with Hoechst stain for 10 mins to visualize nuclei of cells. A blinded observer counted total cells per slide and then scrubbed cells off top surface, washed with PBS, and recounted to record migrated cells. Migration was reported as migrated over total cells per well. Fluorescent images of cells were captured using Olympus IX71 inverted microscope. […] […]

[2] = target: T1, P2ry12; test: ADP calcium imaging (Fura-2-AM, I340/I380); assay type: cell-based; conditions: 50 μM, 1 hour; ADP 10 μM
Description: For calcium imaging, iMGLs were plated on poly-L-lysine-coated coverslips and 1 hour later were incubated with Fura-2-AM (Molecular Probes) calcium dye diluted in Ringer solution containing (in mM): NaCl 140, KCl 4.5, CaCl2 2, MgCl2 1, HEPES 10, glucose 10, sucrose 5, pH=7.4. After a 1-hour incubation, the dye was washed out 3 times using Ringer solution and treated for 1 hour with either P2RY12 inhibitor PSB0739 (50 μM, Tocris) or Vehicle (DMSO) and used for experiments. Baseline Ca^2+ signal (I340/I380) were measured for more than 100 s and then ADP (10 μM) was introduced under stead flow after baseline measurement. Ca^2+ recordings were performed on Zeiss (Axiovert 35)-based imaging setup and data acquisition was conducted with Metafluor software (Molecular Devices). Data analysis was performed using Metafluor, Origin Pro, and Prism 6.0.

[3] = test system: iMGLs; test: Mesoscale multiplex cytokine and chemokine assay of iMGL conditioned media; assay type: cell-based, human; conditions: for CCL2 secretion, mean ± SE / CCL3 secretion, mean ± SE / CCL4 secretion, mean ± SE / CCL17 secretion, mean ± SE / CXCL10 secretion, mean ± SE / IL1A secretion, mean ± SE / IL6 secretion, mean ± SE / IL8 secretion, mean ± SE / IL10 secretion, mean ± SE / TNFA secretion, mean ± SE: iMGLs stimulated 24 h, IFNγ 20 ng/ml, IL-1β 20 ng/ml or LPS 100 ng/ml; for TNFA secretion, mean ± SE: n=3 wells/group; for cytokines/chemokines secreted by iMGLs in response to the stimulus: of the 10 examined cytokines, 24 h
Description: iMGLs culture media was replaced with basal media for 2 hours prior to stimulation with IFNγ (20 ng/ml), IL1β (20 ng/ml), and LPS (100 ng/ml) for 24 hours, after which cells were collected for RNA and conditioned media assessed for cytokine secretion. To simultaneously assess multiple cytokine and chemokine analytes from iMGL conditioned media, conditioned media from each treatment group was processed and analyzed using the V-PLEX human cytokine 30-plex kit (Mesoscale) according to the manufacturer protocol.

[4] = test system: iMGLs; test: RNA-seq differential gene expression of iMGLs with or without TGFβ; assay type: cell-based, human
Description: Cells were harvested and washed three times with DPBS and stored in RNAlater, RNA preservation solution. RNA was extracted from all cell types using RNeasy Mini Kit (Qiagen) following manufacturer's guidelines. RNA integrity (RIN) was measured for all samples using the Bioanalzyer Agilent 2100 series. All sequencing libraries analyzed were generated from RNA samples measuring a RIN score≥9. The Illumina TruSeq mRNA stranded protocol was used to obtain poly-A mRNA from all samples. 200 ng of isolated mRNA was used to construct RNA-seq libraries. Libraries were quantified and normalized using the Library Quantification Kit from Kapa Biosystems and sequenced as paired-end 100 bp reads on the Illumina HiSeq 2500 platform.
RNA-seq reads were mapped to the hg38 reference genome using STAR aligner and mapped to Gencode version 24 gene annotations using RSEM. Genes with expression (<1 FPKM) across all samples were filtered from all subsequent analysis. Differential gene expression analysis was performed on TMM normalized counts with EdgeR (Robinson et al., 2010). Multiple biological replicates were used for all comparative analysis. A p-value≤0.001 and a 2-fold change in expression were used in determining significant differentially expressed genes for respective comparisons. PCA analysis was performed using the R package rgl and plotted using plot3d. […]

Row | Compound | effect on ADP-induced iMGL migration [1] | effect on ADP-induced calcium flux in iMGLs [2] | CCL2 secretion, mean ± SE [3] | CCL3 secretion, mean ± SE [3] | CCL4 secretion, mean ± SE [3] | CCL17 secretion, mean ± SE [3] | CXCL10 secretion, mean ± SE [3] | IL1A secretion, mean ± SE [3] | IL6 secretion, mean ± SE [3] | IL8 secretion, mean ± SE [3] | IL10 secretion, mean ± SE [3] | TNFA secretion, mean ± SE [3] | cytokines/chemokines secreted by iMGLs in response to the stimulus [3] | genes differentially expressed in iMGLs after TGFβ removal ([4]; TGFβ removal (24 hours)) | genes differentially expressed (increased) in iMGLs with TGFβ ([4]; presence of TGFβ)
1 | Nc1c(S(=O)(=O)O)cc(Nc2ccc(Nc3ccccc3)c(S(=O)(=O)O)c2)c2c1C(=O)c1ccccc1C2=O [PSB0739] | negated; also recorded: completely abrogates ADP-induced iMGL migration | negated | – | – | – | – | – | – | – | – | – | – | – | – | –
2 | Lipopolysaccharide [LPS] | – | – | 5,695.46 ± 275.72 | 0.00 ± 0.00 | 4,594.57 ± 33.96^ | 92.96 ± 7.70 | 73.72 ± 4.53 | 30.55 ± 2.19 | 274.39 ± 15.25 | 4,347.96 ± 75.61^ | 31.31 ± 1.52 | 116.49 ± 9.77 | induction of all measured cytokines except for CCL3 | – | –
3 | IL-1β: cytokine used to stimulate iMGLs (20 ng/ml) | – | – | 275.98 ± 19.54 | 556.24 ± 54.01 | 4,492.26 ± 51.35^ | 21.75 ± 1.94 | 69.49 ± 4.73 | 4.89 ± 1.45 | 13.92 ± 0.41 | 3,004.54 ± 47.58^ | 4.42 ± 1.33 | 29.74 ± 0.65 | 8 | – | –
4 | TGFβ: glia-derived cytokine in iMGL differentiation media (50 ng/ml) | – | – | – | – | – | – | – | – | – | – | – | – | – | 1517 genes | 1262 genes
5 | IFNγ: cytokine used to stimulate iMGLs (20 ng/ml) | – | – | 993.26 ± 55.76 | 295.39 ± 19.72 | 4,514.72 ± 10.01^ | 25.82 ± 1.98 | 0.00 ± 0.00 | 1.48 ± 0.25 | 12.22 ± 1.44 | 3549.05 ± 181.22 | 4.59 ± 2.35 | 58.82 ± 8.80 | 8 | – | –
